These results are taken from article PMC11345830, “Exploration of Hydrazide-Based HDAC8 PROTACs for the Treatment of Hematological Malignancies and Solid Tumors” (Journal of Medicinal Chemistry, 2024).

Read-outs that look alike come from different tables or passages of the source.

The subject of assay [1] is Jurkat cells. Briefly: Apoptosis assay (Annexin V-FITC/PI flow cytometry), Jurkat. In kind it is cell-based. The settings on record: 24 and 48 h. The protocol: The cell apoptosis assay was performed using eBioscience Annexin V-FITC/PI Apoptosis Detection Kit (Thermo Fisher Scientific, Carlsbad, CA, USA). Jurkat cells (5 × 10^5) and HCT116 cells (3 × 10^5) were treated with different concentrations of test compounds for 24 or 48 h. Cells were harvested after incubation, washed twice in cold PBS, centrifuged, and resuspended in 1X annexin-binding buffer. According to the manufacturer’s instructions, cells were incubated with Annexin V and Propidium iodide (PI) sequentially. All samples were analyzed by NovoCyte Quanteon Flow Cytometer (Agilent Technologies, CA, USA).
(In flow cytometry, cells or beads pass a laser one at a time.)

Assay [2] deals with Jurkat cells. In words: Lipid peroxidation detection (BODIPY 581/591 C11), Jurkat. The assay is classed as cell-based. To be noted: 10 μM, 24 h. The protocol: Jurkat cells (5 × 10^5), HCT116 cells (3 × 10^5) and THP-1 cells (5 × 10^5) were seeded on 6-well plates. The next day, cells were treated with indicated concentrations of compounds for 24 or 48 h. Then, cells were stained with 1.3 μM of BODIPY 581/591 C11 (Invitrogen, D3861) for another 1 h at 37 °C. Later, cells were harvested and washed three times with ice-cold PBS, followed by resuspended in FACS buffer (1% BSA in PBS). Lipid peroxidation was determined by NovoCyte Quanteon Flow Cytometer (Agilent Technologies, CA, USA).

Assay [3] deals with acetyl-SMC3 (Ac-SMC3). In words: Ac-SMC3 level in HCT116 cells, Western blot. In kind it is cell-based. To be noted: 6 h. For orientation: Immunoblotting shows a protein as a band on a membrane.
A further assay addresses T1, IKZF3 (Homo sapiens, UniProt Q9UKT9).
T1 construct: endogenous in cells; host or cells: Jurkat
Briefly: IKZF3 level in Jurkat cells, Western blot. The assay is classed as cell-based. To be noted: 6 h.

Assay [4] has as its system acetyl-SMC3 (Ac-SMC3). In words: Ac-SMC3 level in Jurkat cells, Western blot. In kind it is cell-based. To be noted: 6 h.
For another assay, the system named is STAT3. To be noted: 24 h. The source says: We also explored a potential by-stander effect of HDAC8 degradation. It has been reported that HDAC8 can form a corepressor complex with STAT3 and release of the HDAC8 corepressor complex can recruit p300, Sp3, and other factors that activate gene transcription in colon cancer HCT116 cells.[20]
Assay [5] relates to acetyl-histone H3 (Ac-HH3). Briefly: Ac-HH3 level in Jurkat cells, Western blot. In kind it is cell-based. To be noted: 6 h.
The subject of another assay is HEL cells. In words: Cell viability MTS assay, HEL. The assay is classed as cell-based. The settings on record: ratio of IC50 values. The protocol: MTS assay was used to measure the cell viability. For single treatment, Jurkat, THP-1 and HEL (8000 cells/well), HCT116 and A549 (2000 cells/well) were seeded in 96-well plates in 100 μL complete medium. After overnight incubation, 50 μL of media containing various concentrations of compounds or the vehicle were added to each well. For cotreatment, cells were seeded in 96-well plates in 50 μL complete medium. After overnight incubation, 50 μL of Z-VAD-FMK, Nec-1, Fer-1, CQ, and other indicated compounds were added to each well. One hour later, 50 μL of media containing various concentrations of compounds were added to each well. After 72 h of treatment, 20 μL of CellTiter 96 AQueous One Solution reagent (Promega, Madison, USA) was added to each well according to manufacturer’s protocol. Plates were incubated at 37 °C for 1–2 h. The absorbance was determined at a wavelength of 490 nm using a Synergy H1 plate reader (Biotek, Winooski, VT, USA).

The next assay has as its target T2, HDAC6 (Homo sapiens, UniProt Q9UBN7).
T2 sequence (Q9UBN7 1-1215): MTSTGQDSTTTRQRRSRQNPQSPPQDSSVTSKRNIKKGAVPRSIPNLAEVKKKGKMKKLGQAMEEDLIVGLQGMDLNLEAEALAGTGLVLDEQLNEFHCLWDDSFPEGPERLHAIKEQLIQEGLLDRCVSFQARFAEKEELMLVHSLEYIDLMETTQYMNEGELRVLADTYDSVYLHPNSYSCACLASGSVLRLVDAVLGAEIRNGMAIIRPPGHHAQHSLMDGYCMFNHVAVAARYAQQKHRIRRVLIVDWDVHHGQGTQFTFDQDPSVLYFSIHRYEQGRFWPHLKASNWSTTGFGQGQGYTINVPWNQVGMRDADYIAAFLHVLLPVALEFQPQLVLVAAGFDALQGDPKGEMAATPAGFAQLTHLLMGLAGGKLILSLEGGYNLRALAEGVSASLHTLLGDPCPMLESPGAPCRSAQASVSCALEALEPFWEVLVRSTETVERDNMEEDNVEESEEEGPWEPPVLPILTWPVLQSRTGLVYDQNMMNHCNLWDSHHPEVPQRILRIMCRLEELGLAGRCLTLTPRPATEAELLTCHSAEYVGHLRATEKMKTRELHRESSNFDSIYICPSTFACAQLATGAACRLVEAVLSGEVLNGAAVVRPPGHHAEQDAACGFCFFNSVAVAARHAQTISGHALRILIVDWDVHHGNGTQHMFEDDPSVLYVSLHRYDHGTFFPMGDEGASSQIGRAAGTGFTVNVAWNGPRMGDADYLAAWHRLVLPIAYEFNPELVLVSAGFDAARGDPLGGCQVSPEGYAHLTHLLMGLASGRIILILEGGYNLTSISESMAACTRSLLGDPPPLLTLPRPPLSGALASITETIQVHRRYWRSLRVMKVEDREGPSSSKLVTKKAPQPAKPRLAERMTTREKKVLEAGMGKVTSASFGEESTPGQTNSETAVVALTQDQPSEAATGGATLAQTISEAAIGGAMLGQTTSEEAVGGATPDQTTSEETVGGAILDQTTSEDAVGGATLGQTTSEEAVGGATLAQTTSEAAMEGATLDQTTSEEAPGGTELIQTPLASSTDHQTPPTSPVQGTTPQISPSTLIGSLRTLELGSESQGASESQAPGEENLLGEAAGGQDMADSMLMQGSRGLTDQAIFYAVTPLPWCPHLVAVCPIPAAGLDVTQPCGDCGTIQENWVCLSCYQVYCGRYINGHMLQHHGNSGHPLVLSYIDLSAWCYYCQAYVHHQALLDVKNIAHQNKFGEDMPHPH
In words: HDAC6 level in Jurkat cells, Western blot. The settings on record: 6 h. The arrangement: endogenous in cells; host or cells: Jurkat. The assay is classed as cell-based.

For a further assay, the target named is T3, IKZF1 (Homo sapiens, UniProt Q13422).
T3 construct: endogenous in cells; host or cells: Jurkat
In words: IKZF1 level in Jurkat cells, Western blot. In kind it is cell-based. The settings on record: 6 h.

T3 sequence (Q13422 whole entry): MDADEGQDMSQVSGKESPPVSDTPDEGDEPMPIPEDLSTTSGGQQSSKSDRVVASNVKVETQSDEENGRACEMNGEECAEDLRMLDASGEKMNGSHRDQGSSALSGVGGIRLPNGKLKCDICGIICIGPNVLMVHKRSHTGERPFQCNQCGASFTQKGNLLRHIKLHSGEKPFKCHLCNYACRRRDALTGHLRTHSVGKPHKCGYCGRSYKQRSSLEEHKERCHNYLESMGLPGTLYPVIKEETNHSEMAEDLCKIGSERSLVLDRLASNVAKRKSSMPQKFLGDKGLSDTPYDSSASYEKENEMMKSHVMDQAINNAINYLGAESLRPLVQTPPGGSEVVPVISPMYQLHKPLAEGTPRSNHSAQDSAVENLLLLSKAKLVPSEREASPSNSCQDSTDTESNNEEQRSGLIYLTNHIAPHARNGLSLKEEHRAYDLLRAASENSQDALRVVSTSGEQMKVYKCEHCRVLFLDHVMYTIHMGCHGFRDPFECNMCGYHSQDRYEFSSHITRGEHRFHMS
T1 sequence (Q9UKT9 whole entry): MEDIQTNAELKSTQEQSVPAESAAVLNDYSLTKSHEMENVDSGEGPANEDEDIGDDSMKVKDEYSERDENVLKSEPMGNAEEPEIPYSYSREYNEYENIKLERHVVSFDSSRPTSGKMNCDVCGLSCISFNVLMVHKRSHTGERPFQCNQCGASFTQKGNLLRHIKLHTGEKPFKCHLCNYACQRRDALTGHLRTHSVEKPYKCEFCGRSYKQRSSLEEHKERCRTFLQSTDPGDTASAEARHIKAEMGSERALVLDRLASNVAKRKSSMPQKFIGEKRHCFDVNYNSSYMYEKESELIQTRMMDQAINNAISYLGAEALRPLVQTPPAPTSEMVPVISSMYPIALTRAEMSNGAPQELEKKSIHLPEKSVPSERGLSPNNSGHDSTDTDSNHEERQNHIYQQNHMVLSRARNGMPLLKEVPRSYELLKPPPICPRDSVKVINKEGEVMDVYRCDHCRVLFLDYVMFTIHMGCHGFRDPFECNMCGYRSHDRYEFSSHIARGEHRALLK

As for `CCCCCCNNC(=O)c1ccc(CNC(=O)CN2CCC(c3ccc(NC4CCC(=O)NC4=O)cc3)CC2)cc1` (stereo not drawn) [Z16, 2-(4-(4-((2,6-Dioxopiperidin-3-yl)amino)phenyl)piperidin-1-yl)-N-(4-(2-hexylhydrazine-1-carbonyl)benzyl)acetamide], the “induction of apoptosis (in words)” value in the assay with Jurkat cells [1] is “neither Z16 nor SAHA could effectively induce apoptosis”. For the same molecule, in the assay on Jurkat cells [2], the lipid peroxidation induced result is recorded as “over 40%”. The “concentration at which increased acetylation of SMC3 started” value in the assay with acetyl-SMC3 (Ac-SMC3) [3] is recorded as 40 nM; in the assay with acetyl-SMC3 (Ac-SMC3) [4], “around 10 nM”. The “intracellular level of IKZF3 (in words)” value on IKZF3 is “did not significantly affect”. Also, in the assay on acetyl-SMC3 (Ac-SMC3) [4], the “concentration leading to obvious increased Ac-SMC3” value amounted to 0.01 µM. In addition, the “STAT3 degradation (in words)” value with STAT3 (HCT116 cells) and in the assay with STAT3 (Jurkat cells) was “did not induce STAT3 degradation” in each case. Moreover, the “level of Ac-HH3 at 1 μM (in words)” value in assay [5] is given as “significantly increase”. Further, the “less potent than SAHA against HEL cells” value in the assay on HEL cells is listed as “about 10 fold”. In addition, the “HDAC6 degradation (in words)” value on HDAC6 is “no obvious”. For the same molecule, the “intracellular level of IKZF1 (in words)” value at IKZF1 was “did not significantly affect”.
